# Source: EP3381898A1, “SYMMETRICAL TRIS-ARYL-AMIDE DERIVATIVES AND THEIR USE AS ANTI-HEPARANASE” (priority 2017, dated 2018)
# Legend:
# Type in all cases: cell-based, human
# FGF-1 = experiment: Real-Time Quantitative PCR of mRNA gene expression in HT1080 cells; conditions: 24 h, 2.5 uM, mean value
# Method: (§1) To evaluate the effect of heparanase inhibitors on the tumor transcription of genes encoding for proangiogenic factors, such as FGF1/2, VEGF, MMP-9, HSPE-1, the relative mRNA levels were analyzed by quantitative Real-Time Quantitative PCR.
# (§2) To perform the assay, HT1080 (human fibrosarcoma) cells were cultured in complete medium containing 10%FCS (fetal calf serum). Cells were plated in 24-well plates and treated at fixed concentration (i.e., highest non-toxic concentration) of test compounds. After 24 h, cells were detached, collected and total RNA extracted by RNeasy Mini Kit (QIAGEN). Following reverse transcription step, FGF1/2, VEGF, MMP-9, HSPE-1 mRNA levels, were quantified by qPCR using the advanced Universal SYBR Green Supermix (Bio Rad) and ABI PRISM 7900HT Thermal Cycler System (Perkin Elmer), according to the manufacturer's instructions. Appropriate no-RT and non-template controls were included in each 96-well PCR reaction, and dissociation analysis was performed at the end of each run to confirm the specificity of the reaction. Relative levels of RNA were calculated using the ddCt method. Standard curve and sample data were run in duplicate. In Table 4 a mean value is reported.
# FGF-2 = experiment: as above; conditions: 24 h, 2.5 uM, mean value
# Method: as §1, §2
# HPSE-1 = experiment: as above; conditions: 24 h, 2.5 uM, mean value
# Method: as §1, §2
# MMP-9 = experiment: as above; conditions: 24 h, 2.5 uM, mean value
# Method: as §1, §2
# VEGF = experiment: as above; conditions: 24 h, 2.5 uM, mean value
# Method: as §1, §2
# [1] = system: genes encoding for proangiogenic factors; experiment: Real-Time Quantitative PCR in HT1080 cells, summary statement for all factors; conditions: 2.5 µM, result in words
# Method: as §1
# as §2, with “reported. […]” for “reported.”
substance,measurement,setting,value
"2,2'-{carbonylbis[imino[5-(trifluoromethyl)-3,1-phenylene]carbonylimino(1-methyl-1H-pyrrole-4,2-diyl)carbonylimino-3,1-phenylene(1-oxoethane-2,1-diyl)imino]}diethanoic acid [Compound 12i]",Gene Expression (% mRNA vs. control) FGF-1,FGF-1,~ 53%
same,Gene Expression (% mRNA vs. control) FGF-2,FGF-2,~ 82%
same,Gene Expression (% mRNA vs. control) HPSE-1,HPSE-1,~ 63%
same,Gene Expression (% mRNA vs. control) MMP-9,MMP-9,~ 50%
same,Gene Expression (% mRNA vs. control) VEGF,VEGF,~ 55%
same,inhibition of genes expression encoding for proangiogenic factors,[1],significant inhibition
